One molecule from patent US20260242320A1, “USE OF CANNABIDIOL DERIVATIVE IN PREPARATION OF MEDICAMENT” (priority 2023, published 2026) can be followed below.

Data set [1] relates to BV-2 cellular viability. Kind of data set: Cell viability / cytotoxicity by crystal violet staining. In kind it is cell-based. How it is done:
100 μL of culture medium were transferred to a black 96-well plate for later use. Following removal of old culture medium, 100 μL of 4% paraformaldehyde was added for fixation. Fixation was performed for 5 minutes. Paraformaldehyde was then removed, and 100 μL of 0.05% crystal violet was added. The resultant mixture was incubated for 15 minutes, after which time crystal violet was removed and the mixture was slowly rinsed with water three times. Next, 150 μL of ethanol was added, and the mixture was incubated for 15 minutes. After incubation, the absorbance was measured at 540 nm using a spectrophotometer. Viability (%)=100× Fluorescence values of the dosing group/Fluorescence values of the blank group.
Cell viability was determined by crystal violet staining. Briefly, BV-2 cells were treated as indicated in the NO assay. The media was removed, and then 4% paraformaldehyde was added to fix the cells for 5 min. Cells were stained with 100 μL 0.05% crystal violet for 15 min and washed with water 2 times. Next, 150 μL of ethanol was added to each well, and the plate was incubated for 15 min at room temperature. Absorbance at 540 nm was measured using a SYNERGY H1 Microplate Reader.

The subject of data set [2] is morphine-dependent mice. Kind of data set: Naloxone-precipitated morphine withdrawal jumps. Format: in vivo. Conditions: 2 μg/kg, 20 μg/kg, 0.2 mg/kg i.p., 0.2 mg/kg. As for the experimental part: Mice were intraperitoneally injected with an escalating dose of morphine three times daily for 3 days (5, 20, and 40 mg/kg) to induce addiction. On the fourth day, mice were given morphine (40 mg/kg) or vehicle (5 mL/kg). […] The withdrawal was precipitated by naloxone. Each mouse was placed into a transparent plastic box immediately, and the number of jumps was recorded for 15 min.

Data set [3] relates to morphine-treated mice. Kind of data set: Morphine-induced behavioral sensitization. Conditions: 0.2 mg/kg i.p. Format: in vivo. As for the experimental part: Mice were placed into the test chamber (40×40×40 cm^3) for 60 min to habituate the chamber for three consecutive days. […] Locomotor activity was recorded daily for 60 min after the administration of drugs. Next, all the mice were subjected to a 7-day withdrawal period (days 8-14). Subsequently, mice were given morphine (5 mg/kg, i.p.), and locomotor activity was recorded to determine behavioral sensitization.

Data set [4] can be described thus: Y-maze test of short-term memory. As to conditions: CIAC001 20 mg/kg i.p.; THC 10 mg/kg i.p. Format: in vivo, mice. How it is done:
Mice were tested for short-term memory using a Y-maze task. Briefly, mice were placed into the Y-maze for 10 min once daily to habituate the apparatus for two consecutive days. After daily habituation, the mice were then treated with CIAC001 (20 mg/kg) or THC (10 mg/kg). On the 3rd day, mice were pretreated with CIAC001 or THC 45 min before the Y-maze test. Next, the “new arm” was blocked, and mice had 5 min to freely explore two arms (the “start arm” and the “old arm”, FIG. 8F). Mice were then removed from the Y-maze and placed into the cages for 2 min. During the test phase, mice were allowed to freely explore all three arms for 2 min, and the time spent in each arm was recorded and analyzed using the Noldus analyzing software. To eliminate olfactory interference, the Y-maze was wiped off with 70% alcohol after each test.

A short description of data set [5]: CPP assay for rewarding effect of CIAC001. Format: in vivo, mice. Conditions: 20 mg/kg i.p. As for the experimental part: Conditional place conditioning (CPP) was conducted using the classic 10-consecutive-day procedure. On days 1 and 2, each mouse was separately placed into the CPP apparatus for 15 min to habituate the apparatus. On day 3 (preconditioning), the time spent in each compartment was recorded to determine any preference for the two compartments. […] During the conditioning phase, mice were separately isolated in the compartment for 30 min on 6 consecutive days. Mice were given morphine on days 4, 6, and 8, and vehicle (5 mL/kg) was administered on days 5, 7, and 9. The postconditioning phase was carried out 24 h after the last conditioning session. Each mouse was placed in the apparatus and explored freely, and the time spent in each compartment was recorded for 15 min. The CPP score(s) was calculated using the time spent in the drug-paired compartment minus the time spent in the vehicle-paired compartment.

Data set [6] has as its target T1, PKM2 tetramer / monomer (Mus musculus, UniProt P52480).
T1 construct: endogenous in cells; host or cells: BV-2 cells
Kind of data set: Western blot of PKM2 tetramer and monomer in LPS-treated cells. Format: cell-based. An excerpt: ImageJ was used for densitometric analysis.

Data set [7] has as its system lactate dehydrogenase A (LDHA) mRNA. Kind of data set: LDHA mRNA in LPS-treated BV-2 cells. In kind it is cell-based. As to conditions: 3 hours. As for the experimental part:
Total RNA was extracted from cells or mouse brains using the RNeasy Mini Kit. Isolated RNA was reverse-transcribed into cDNA using an RT2 Easy First Strand cDNA Synthesis Kit following the manufacturer's protocols. PCR amplification was conducted using synthetic primers, SYBR Green, and a TOptical Real-Time qPCR Thermal Cycler (Analytik Jena, Thuringia, Germany). The data were analyzed by the […] method, and Rpl711 or Rpl27 was used as an internal control.

The target of data set [8] is T2, CB2 Receptor (Homo sapiens, UniProt P34972).
T2 construct: expressed in transfected cells; host or cells: GloSensor 22-F HEK293 cells
In words: cAMP measurement, forskolin-induced cAMP accumulation, CB2. In kind it is cell-based. As to conditions: cAMP assay. As for the experimental part:
GloSensor 22-F HEK293 cells were transfected with plasmids encoding different receptors (CB1 and CB2). After 24 h, HEK293 cells were seeded at a density of 5×10^4 cells per well in 96-well plates and incubated for 8 h; then, the medium was removed, and 200 μL of serum-free DMEM medium containing 2% GloSensor cAMP substrate (Promega) was added. After 2 h incubation, the transfected cells were stimulated with different concentrations of ligands together with […]. The luminescence was recorded using a Multimode Plate Reader (En Vision, PerkinElmer).
In general terms: cAMP levels reflect the balance of adenylyl cyclase and phosphodiesterase activity.

Data set [9] deals with PKM2 (Mus musculus, UniProt P52480). In words: Pull-down with probes 19e/19f and western blotting.
Method: The protein samples were separated by SDS-PAGE and transferred to PVDF membranes. The membranes were blocked with 5% nonfat dry milk for 1 h. The membranes were incubated with the corresponding primary antibody at 4° C. overnight and then washed with Tris-buffered saline with 0.1% Tween 20 (TBST) for 5 min each time and incubated for 1 h at room temperature with the secondary antibody-HRP conjugate. After washing with TBST, the membranes were developed using Super-Signal West Pico Chemiluminescent Substrate and visualized by a Tanon-5200 Multi. ImageJ was used for densitometric analysis.
BV-2 cells were treated with the probe Compound 19e (5 μM) or CIAC001 (20 μM) for 2 h at 37° C.; then, cells were transferred on ice and irradiated with 365 nm UV light for 30 min. Cells were washed with 3 mL PBS twice and lysed by buffer containing 250 mM HEPES (pH=7.9), 1.5 M KCl, 5 mM EDTA, 0.5% v/v NP-40, and 1% v/v protease inhibitor cocktail. The cell lysate was centrifuged at 4° C. and 12,000 g for 10 min, and the protein concentration was adjusted to 1 mg/mL by the BCA assay kit. […]
BV-2 cells were scraped with PBS; then, cells were lysed with buffer containing 250 mM HEPES (pH=7.9), 1.5 M KCl, 5 mM EDTA, 0.5% v/v NP-40, and 0.025% v/v protease inhibitor cocktail and incubated on ice for 30 min. […] The lysate was subjected to a click reaction as described above and analyzed by SDS-PAGE. […]

Structures are written as SMILES. Entries after “also recorded” stand apart in the source; their conditions may differ.

T1 sequence (P52480 whole entry): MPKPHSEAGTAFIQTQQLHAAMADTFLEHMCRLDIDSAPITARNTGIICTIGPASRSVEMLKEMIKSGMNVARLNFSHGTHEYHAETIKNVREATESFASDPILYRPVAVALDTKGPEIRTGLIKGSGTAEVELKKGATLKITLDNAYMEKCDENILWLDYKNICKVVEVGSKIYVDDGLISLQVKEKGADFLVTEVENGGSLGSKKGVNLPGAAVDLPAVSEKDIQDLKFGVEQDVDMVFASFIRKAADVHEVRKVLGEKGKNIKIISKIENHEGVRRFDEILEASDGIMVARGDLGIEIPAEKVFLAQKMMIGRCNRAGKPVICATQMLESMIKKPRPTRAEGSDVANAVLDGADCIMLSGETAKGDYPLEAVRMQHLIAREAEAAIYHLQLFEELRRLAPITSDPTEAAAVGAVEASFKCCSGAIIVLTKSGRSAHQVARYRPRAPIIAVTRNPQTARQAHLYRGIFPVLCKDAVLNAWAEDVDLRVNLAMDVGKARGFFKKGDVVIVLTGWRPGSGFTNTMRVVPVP
Sequence of PKM2 (P52480 whole entry): as above
T2 sequence (P34972 whole entry): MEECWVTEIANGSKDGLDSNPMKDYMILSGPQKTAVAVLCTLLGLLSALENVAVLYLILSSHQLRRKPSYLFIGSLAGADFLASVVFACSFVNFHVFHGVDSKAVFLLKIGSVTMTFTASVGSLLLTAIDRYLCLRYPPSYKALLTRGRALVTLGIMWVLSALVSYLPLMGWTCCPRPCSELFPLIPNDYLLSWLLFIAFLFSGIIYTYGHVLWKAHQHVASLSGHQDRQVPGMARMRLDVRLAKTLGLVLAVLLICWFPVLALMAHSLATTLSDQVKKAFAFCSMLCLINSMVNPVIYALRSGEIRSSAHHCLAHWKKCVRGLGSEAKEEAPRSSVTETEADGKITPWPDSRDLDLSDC

Consider `C=C(C)[C@@H]1CCC(C)=C[C@H]1c1c(O)cc(C(C)n2nccn2)cc1O` (stereo partly drawn) [CIAC001, (1′R,2′R)-4-(1-(2H-1,2,3-Triazol-2-yl)ethyl)-5′-methyl-2′-(prop-1-en-2-yl)-1′,2′,3′,4′-tetrahydro-[1,1′-biphenyl]-2,6-diol], for which the concentration for half-maximal inhibition (IC50) in data set [1] (Mus musculus, BV-2 cells, read-out: Cellular toxicity (IC50 inhibiting BV-2 cellular viability)) worked out at 57.8 ± 7.6 µM. Besides, in data set [1] (vs CBD), the “fold less cytotoxicity compared to CBD” value is listed as 6.8 fold. Also, the naloxone-precipitated withdrawal jumps entry in data set [2] is listed as “dose-dependently attenuated; also recorded: ameliorated”. Moreover, the “locomotor response to morphine challenge (expression of behavioral sensitization)” value in data set [3] (day 15) is “decreased the locomotor response”. The “development of morphine-induced behavioral sensitization (induction period)” value in [3] (mice) was “significantly inhibited; also recorded: ameliorated”. Further, the “time spent on the new arm (Y maze)” value in data set [4] is reported as “did not affect the time mice spent on the new arm”. For the same molecule, in data set [5], the “rewarding effect (CPP after 6 consecutive days of training)” value is “did not show any effect on CPP”. In data set [6], the “LPS-induced decline of the PKM2 tetramer” value was “reversed the LPS-induced decline of the PKM2 tetramer” and the “LPS-induced rise of the PKM2 monomer” value is recorded as “inhibit the LPS-induced rise of the PKM2 monomer; also recorded: inhibited LPS-induced rise of the PKM2 monomer”. For the same molecule, in data set [7], the “LPS-induced LDHA mRNA overexpression” value was “significantly inhibited”. Moreover, in data set [8], the “CB2 receptor activity” value is “no apparent CB1/CB2 activity”. The “binding of Compound 19e to PKM2 in presence of free CIAC001” value in [9] (high concentrations of free CIAC001) was “competitively inhibited”. The “binding with PKM (PKM2 vs PKM1) in situ and in vitro” value in data set [9] (pull-down, western blot, BV-2) was “directly binds with PKM2 rather than PKM1”.

As a reminder, the IC50 is the concentration at which inhibition is half-maximal.
